The subject of data set [1] is human α1β2γ2-GABA-A receptors. Description: Electrophysiological studies, automated patch clamp (QPatch16X), HEK293 cells. The format is cell-based. The conditions noted are these: agonist mode, compound at 10 μM; current amplitude normalized to 10 μM GABA response; ±S.E.M. As for the experimental part: Electrophysiological studies were acquired using the QPatch16X automatic patch clamp platform (Sophion Biosciences) as described before.[42],[43] […] Before the assay, cells were detached from the culture flask by treating them with TrypLE Express solution (Life Technologies) and subsequently suspended in serum-free media. The cells were loaded into a 1.5 mL microtube on the automated electrophysiology instrument, which subsequently performed a spin-down using its built-in centrifuge. Following this, the cells were washed with Ringer’s extracellular solution. The cells were moved to the pipetting wells of a 16-channel planar patch chip plate (QPlate 16X) designed for single-use. A combined suction/voltage protocol was then applied to establish gigaseals. […] During the entire whole-cell recording, the holding potential was maintained at −90 mV. […] The intracellular solution contained 140 mM CsF, 1 mM EGTA, 5 mM CsOH, 10 mM HEPES, 20 mMNaCl (pH 7.2, 320 mOsm). […] The acquired data were examined with QPatch assay software (v5.0, Sophion Biosciences)[44] and are represented as the mean of three separated measurements performed on distinct cells. The efficacy of the tested molecules was determined by calculating the baseline-corrected ratio of the maximum current amplitudes elicited by the tested compounds and the reference agonist (T1-ATG/AG1-ATG or T2-ATG/AG1-ATG). The raw current recordings were standardized and presented as a percentage of the current amplitude evoked by the reference agonist, using the QPatch assay software (v5.0, Sophion Biosciences).
In general terms: The patch-clamp technique gives a direct electrical read-out from membranes.

A further data set has as its system female Wistar rats. Also noted: method as in PMID 36603509. The conditions noted are these: not tested here; cited from earlier work.
Data set [2] is described as follows: Parallel artificial membrane permeability assay (PAMPA). The conditions noted are these: tested at 10^–5 M, PAMPA Plate System Gentest. The data set is classed as in vitro ADME. As for the experimental part: To estimate the passive transport through cell membranes, we used specialized PAMPA Plate System Gentest acquired from Corning (Tewksbury, MA, USA). The assay was performed as described in the manufacturer’s protocol. The quantitative measurements of tested molecules in apical and basolateral wells were conducted using LC/MS (Waters ACQUITY TQD system with the TQ detector, Milford, USA) and a specific internal standard. The Pe permeability coefficient was calculated rendering the formulas described previously[47],[47] and compared to the reference compound sulpiride.
For orientation: The PAMPA barrier holds no transporters, so it reflects passive diffusion.

As for `NCCCC(=O)O` [GABA], in data set [1], the “[%] of 10 μM GABA activity” value was 100%. Also, the antidepressant effects entry with female Wistar rats is “does not produce antidepressant effects”.
`CCN1CCCC1CNC(=O)c1cc(S(N)(=O)=O)ccc1OC` (stereo not drawn) [sulpiride, reference compound]: in data set [2], the Papp (as a rule, a coefficient for how fast a substance crosses the barrier) came to 0.016 ×10⁻⁶ cm/s.
